ChEMBL document CHEMBL3576861, “Methyl 3-((6-methoxy-1,4-dihydroindeno[1,2-c]pyrazol-3-yl)amino)benzoate (GN39482) as a tubulin polymerization inhibitor identified by MorphoBase and ChemProteoBase profiling methods” (J Med Chem, 2015)
Calls of active or inactive are those of the source. No cut-off for these calls is given here.

What was measured:
HeLa [1] = assay: Antiproliferative activity against human HeLa cells assessed as inhibition of cell viability after 72 hrs by MTT assay; type: functional, cell-based
PC-3 = assay: Antiproliferative activity against human PC3 cells assessed as inhibition of cell viability after 72 hrs by MTT assay; type: functional, cell-based; conditions: PC-3, 72 h
HEK293 = assay: Antiproliferative activity against HEK293 cells assessed as inhibition of cell viability after 72 hrs by MTT assay; type: cell-based; conditions: Homo sapiens, HEK293, 72 h
HCT-116 = assay: Antiproliferative activity against human HCT116 cells assessed as inhibition of cell viability after 72 hrs by MTT assay; type: functional, cell-based; conditions: HCT-116, 72 h
Tubulin (Homo sapiens) [2] = target: T1, Tubulin (Homo sapiens) (UniProt P68371+Q9H4B7+P0DPH7+P68366+Q13509+Q71U36+P04350+Q3ZCM7+P07437+P68363+Q9BQE3+Q6PEY2+Q13885+Q9BVA1+Q9BUF5); assay: Inhibition of tubulin polymerization in human HeLa cells assessed as reduction of microtubule formation at 100 nM after 6 hrs by DAPI staining-based immunofluorescence assay; type: cell-based
HeLa [3] = assay: Cell cycle arrest in human HeLa cells assessed as accumulation at G2/M phase at 0.3 to 30 nM after 24 hrs by propidium iodide staining based flow cytometry; type: functional
HeLa [4] = assay: Cell cycle arrest in human HeLa cells assessed as accumulation at G2/M phase at 3 to 30 uM after 24 hrs by propidium iodide staining based flow cytometry; type: functional
HeLa [5] = assay: Cell cycle arrest in human HeLa cells assessed as accumulation at G2/M phase at 100 nM after 24 hrs by propidium iodide staining based flow cytometry; type: functional
Tubulin (Homo sapiens) [6] = target: T1, Tubulin (Homo sapiens); assay: Inhibition of tubulin polymerization in human HeLa cells assessed as reduction of microtubule formation at 1000 nM after 6 hrs by DAPI staining-based immunofluorescence assay; type: cell-based
Tubulin (Homo sapiens) [7] = target: T1, Tubulin (Homo sapiens); assay: Inhibition of acetylated tubulin accumulation in human HeLa cells at 1000 nM after 6 hrs by Western blot analysis; type: cell-based
Tubulin (Homo sapiens) [8] = target: T1, Tubulin (Homo sapiens); assay: Inhibition of acetylated tubulin accumulation in human HeLa cells at 300 nM after 6 hrs by Western blot analysis; type: cell-based
Tubulin (Homo sapiens) [9] = target: T1, Tubulin (Homo sapiens); assay: Inhibition of tubulin polymerization in human HeLa cells assessed as reduction of microtubule formation at 300 nM after 6 hrs by DAPI staining-based immunofluorescence assay; type: cell-based
Tubulin (Homo sapiens) [10] = target: T1, Tubulin (Homo sapiens); assay: Inhibition of acetylated tubulin accumulation in human HeLa cells at 1 to 100 nM after 6 hrs by Western blot analysis; type: cell-based
[11] = target: T2, Cyclin-dependent kinase 2/cyclin E1 (Homo sapiens) (UniProt P24864+P24941); assay: Inhibition of N-terminal GST-tagged human full length CDK2/Cyclin E1 expressed in baculovirus using histone H1 as substrate at 10 uM after 1 hr by off-chip Mobility Shift Assay
[12] = target: CDK4/Cyclin D3 (Homo sapiens) (UniProt P11802+P30281); assay: Inhibition of human full length N-terminal GST-fusion protein CDK4/GST-tagged Cyclin D3 expressed in baculovirus using DYRKtide-F as substrate at 0.1 uM after 1 hr by off-chip Mobility Shift Assay
Escherichia coli = assay: Antimicrobial activity against Escherichia coli HO141 at 100 nM after 24 hrs by standard microdilution method; type: functional, organism-based
Plasmodium falciparum = assay: Antimalarial activity against Plasmodium falciparum 3D7 infected in human erythrocytes assessed as LDH activity at 100 nM after 72 hrs by plate reader analysis; type: functional, organism-based
[13] = target: Platelet-derived growth factor receptor beta (Homo sapiens) (UniProt P09619); assay: Inhibition of N-terminal GST fusion protein human PDGFR-beta cytoplasmic domain expressed in baculovirus using CSKtide as substrate at 10 uM after 1 hr by off-chip Mobility Shift Assay
[14] = target: T2, Cyclin-dependent kinase 2/cyclin E1 (Homo sapiens); assay: Inhibition of N-terminal GST-tagged human full length CDK2/Cyclin E1 expressed in baculovirus using histone H1 as substrate at 0.1 uM after 1 hr by off-chip Mobility Shift Assay
Pyricularia oryzae = assay: Antimicrobial activity against Magnaporthe oryzae Kita-1 at 100 nM after 48 hrs by standard microdilution method; type: functional, organism-based
[15] = target: Platelet-derived growth factor receptor beta (Homo sapiens) (UniProt P09619); assay: Inhibition of N-terminal GST fusion protein human PDGFR-beta cytoplasmic domain expressed in baculovirus using CSKtide as substrate at 0.1 uM after 1 hr by off-chip Mobility Shift Assay
[16] = target: Vascular endothelial growth factor receptor 2 (Homo sapiens) (UniProt P35968); assay: Inhibition of N-terminal GST fusion protein human KDR cytoplasmic domain expressed in baculovirus using CSKtide as substrate at 10 uM after 1 hr by off-chip Mobility Shift Assay
[17] = target: T3, Serine/threonine-protein kinase Chk1 (Homo sapiens) (UniProt O14757); assay: Inhibition of human full length N-terminal GST fusion protein CHK1 expressed in baculovirus using CHKtide as substrate at 0.1 uM after 1 hr by off-chip Mobility Shift Assay
T3 sequence (whole entry): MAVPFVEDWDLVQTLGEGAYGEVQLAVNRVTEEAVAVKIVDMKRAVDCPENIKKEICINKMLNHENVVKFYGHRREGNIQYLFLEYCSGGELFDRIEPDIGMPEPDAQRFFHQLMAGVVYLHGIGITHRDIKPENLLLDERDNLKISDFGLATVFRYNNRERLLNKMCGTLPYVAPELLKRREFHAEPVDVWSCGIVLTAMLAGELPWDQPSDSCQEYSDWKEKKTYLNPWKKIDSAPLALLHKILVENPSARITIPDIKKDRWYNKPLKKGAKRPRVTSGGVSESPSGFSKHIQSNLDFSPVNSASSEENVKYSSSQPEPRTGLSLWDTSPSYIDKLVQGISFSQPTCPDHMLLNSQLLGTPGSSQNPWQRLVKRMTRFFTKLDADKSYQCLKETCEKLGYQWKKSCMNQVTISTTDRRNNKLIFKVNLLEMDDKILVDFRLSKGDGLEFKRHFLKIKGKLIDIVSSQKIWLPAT

[18] = target: Epidermal growth factor receptor (Homo sapiens) (UniProt P00533); assay: Inhibition of N-terminal GST fusion protein human EGFR cytoplasmic domain expressed in baculovirus using Srctide as substrate at 0.1 uM after 1 hr by off-chip Mobility Shift Assay
Candida albicans = assay: Antimicrobial activity against Candida albicans JCM1542 at 100 nM after 24 hrs by standard microdilution method; type: functional, organism-based
Staphylococcus aureus = assay: Antimicrobial activity against Staphylococcus aureus 209 at 100 nM after 24 hrs by standard microdilution method; type: functional, organism-based
Aspergillus fumigatus = assay: Antimicrobial activity against Aspergillus fumigatus Af293 at 100 nM after 48 hrs by standard microdilution method; type: functional
Tubulin (Sus scrofa) = Tubulin (Sus scrofa) (UniProt P02554+P02550); assay: Inhibition of porcine tubulin polymerization measured every min for 1 hr by fluorescence analysis; type: protein assay
[19] = target: Vascular endothelial growth factor receptor 2 (Homo sapiens) (UniProt P35968); assay: Inhibition of N-terminal GST fusion protein human KDR cytoplasmic domain expressed in baculovirus using CSKtide as substrate at 0.1 uM after 1 hr by off-chip Mobility Shift Assay
Tubulin (Homo sapiens) [20] = target: T1, Tubulin (Homo sapiens); assay: Inhibition of tubulin polymerization in human HeLa cells assessed as reduction of microtubule formation at 30 nM after 6 hrs by DAPI staining-based immunofluorescence assay; type: cell-based

Chain of Vascular endothelial growth factor receptor 2 (Homo sapiens) (P35968 whole entry, the tested form may be a part): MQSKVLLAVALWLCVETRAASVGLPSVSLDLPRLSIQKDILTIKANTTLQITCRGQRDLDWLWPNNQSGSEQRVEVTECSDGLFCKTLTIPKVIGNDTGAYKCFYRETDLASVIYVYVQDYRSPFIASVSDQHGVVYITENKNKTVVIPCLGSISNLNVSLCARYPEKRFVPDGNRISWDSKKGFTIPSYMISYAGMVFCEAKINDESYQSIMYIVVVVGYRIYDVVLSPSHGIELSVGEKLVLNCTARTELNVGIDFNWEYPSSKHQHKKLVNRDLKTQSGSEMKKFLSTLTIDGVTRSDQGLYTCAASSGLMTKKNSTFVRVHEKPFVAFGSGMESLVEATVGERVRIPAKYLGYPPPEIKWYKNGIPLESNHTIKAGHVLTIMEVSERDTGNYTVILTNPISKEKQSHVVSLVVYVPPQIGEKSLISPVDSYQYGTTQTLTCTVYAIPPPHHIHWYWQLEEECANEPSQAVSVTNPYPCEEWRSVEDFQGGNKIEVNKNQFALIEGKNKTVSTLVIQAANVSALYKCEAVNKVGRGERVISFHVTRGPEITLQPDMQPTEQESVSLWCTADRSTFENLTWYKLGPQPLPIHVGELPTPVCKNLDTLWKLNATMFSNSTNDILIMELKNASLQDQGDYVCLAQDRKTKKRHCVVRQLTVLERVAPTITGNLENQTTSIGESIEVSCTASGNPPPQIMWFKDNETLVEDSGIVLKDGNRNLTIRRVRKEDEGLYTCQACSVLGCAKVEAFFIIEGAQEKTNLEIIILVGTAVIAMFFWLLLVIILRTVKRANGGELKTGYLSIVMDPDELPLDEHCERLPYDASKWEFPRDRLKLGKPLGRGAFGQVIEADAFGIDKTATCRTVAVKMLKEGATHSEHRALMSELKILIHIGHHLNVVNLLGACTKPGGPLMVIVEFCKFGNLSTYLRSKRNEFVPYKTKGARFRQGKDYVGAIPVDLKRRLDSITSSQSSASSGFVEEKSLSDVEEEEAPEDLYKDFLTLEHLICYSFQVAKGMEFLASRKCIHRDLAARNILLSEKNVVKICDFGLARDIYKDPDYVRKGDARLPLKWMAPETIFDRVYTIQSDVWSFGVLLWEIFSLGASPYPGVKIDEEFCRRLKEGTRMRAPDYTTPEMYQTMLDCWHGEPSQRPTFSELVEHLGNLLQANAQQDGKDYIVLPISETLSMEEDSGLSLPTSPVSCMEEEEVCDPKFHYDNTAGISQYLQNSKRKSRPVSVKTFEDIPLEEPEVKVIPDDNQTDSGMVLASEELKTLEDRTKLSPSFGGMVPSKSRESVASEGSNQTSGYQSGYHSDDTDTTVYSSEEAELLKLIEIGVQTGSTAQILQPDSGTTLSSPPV
Chain of Platelet-derived growth factor receptor beta (Homo sapiens) (P09619 whole entry, the tested form may be a part): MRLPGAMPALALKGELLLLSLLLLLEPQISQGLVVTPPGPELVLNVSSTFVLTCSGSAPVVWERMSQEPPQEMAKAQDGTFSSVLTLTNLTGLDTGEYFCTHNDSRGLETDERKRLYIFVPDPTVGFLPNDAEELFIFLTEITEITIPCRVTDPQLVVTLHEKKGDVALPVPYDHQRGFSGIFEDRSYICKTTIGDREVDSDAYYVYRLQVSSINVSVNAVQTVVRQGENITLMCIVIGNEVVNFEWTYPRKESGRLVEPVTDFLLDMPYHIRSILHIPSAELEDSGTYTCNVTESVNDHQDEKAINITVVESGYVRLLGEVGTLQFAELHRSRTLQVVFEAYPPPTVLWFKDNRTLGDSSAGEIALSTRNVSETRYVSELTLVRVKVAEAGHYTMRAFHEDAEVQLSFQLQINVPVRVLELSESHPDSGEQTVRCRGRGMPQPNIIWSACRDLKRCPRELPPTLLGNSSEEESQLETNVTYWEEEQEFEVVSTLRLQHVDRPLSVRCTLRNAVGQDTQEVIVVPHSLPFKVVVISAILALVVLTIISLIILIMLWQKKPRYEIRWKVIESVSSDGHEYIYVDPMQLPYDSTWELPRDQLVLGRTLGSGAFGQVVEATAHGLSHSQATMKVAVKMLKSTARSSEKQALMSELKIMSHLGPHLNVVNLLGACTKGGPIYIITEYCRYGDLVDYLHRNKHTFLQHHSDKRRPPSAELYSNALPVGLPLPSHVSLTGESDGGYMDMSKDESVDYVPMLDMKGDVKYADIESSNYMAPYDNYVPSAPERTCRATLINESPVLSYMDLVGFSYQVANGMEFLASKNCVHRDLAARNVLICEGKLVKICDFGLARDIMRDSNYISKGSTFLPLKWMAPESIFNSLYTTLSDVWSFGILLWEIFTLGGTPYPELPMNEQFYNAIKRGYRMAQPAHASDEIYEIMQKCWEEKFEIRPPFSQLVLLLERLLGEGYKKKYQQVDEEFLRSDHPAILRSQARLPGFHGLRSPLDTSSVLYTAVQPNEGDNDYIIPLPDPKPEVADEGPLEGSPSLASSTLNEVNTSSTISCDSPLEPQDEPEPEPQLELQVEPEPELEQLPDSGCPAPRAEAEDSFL
Chain of Tubulin (Sus scrofa) (P02550 whole entry, looked up, the tested form may be a part): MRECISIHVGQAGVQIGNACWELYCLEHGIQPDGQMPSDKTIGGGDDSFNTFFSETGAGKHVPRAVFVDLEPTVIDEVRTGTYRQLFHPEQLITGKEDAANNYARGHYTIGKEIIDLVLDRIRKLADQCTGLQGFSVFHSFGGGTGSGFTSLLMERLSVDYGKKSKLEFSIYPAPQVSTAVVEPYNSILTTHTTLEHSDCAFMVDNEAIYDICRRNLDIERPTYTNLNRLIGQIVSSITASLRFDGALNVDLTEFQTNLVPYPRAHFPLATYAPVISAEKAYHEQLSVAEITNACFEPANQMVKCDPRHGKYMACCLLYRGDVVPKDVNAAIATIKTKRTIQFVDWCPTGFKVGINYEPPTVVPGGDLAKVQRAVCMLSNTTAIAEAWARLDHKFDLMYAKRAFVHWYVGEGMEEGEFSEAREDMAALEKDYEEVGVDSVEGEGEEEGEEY
Chain of Tubulin (Sus scrofa) (P02554 whole entry, looked up, the tested form may be a part): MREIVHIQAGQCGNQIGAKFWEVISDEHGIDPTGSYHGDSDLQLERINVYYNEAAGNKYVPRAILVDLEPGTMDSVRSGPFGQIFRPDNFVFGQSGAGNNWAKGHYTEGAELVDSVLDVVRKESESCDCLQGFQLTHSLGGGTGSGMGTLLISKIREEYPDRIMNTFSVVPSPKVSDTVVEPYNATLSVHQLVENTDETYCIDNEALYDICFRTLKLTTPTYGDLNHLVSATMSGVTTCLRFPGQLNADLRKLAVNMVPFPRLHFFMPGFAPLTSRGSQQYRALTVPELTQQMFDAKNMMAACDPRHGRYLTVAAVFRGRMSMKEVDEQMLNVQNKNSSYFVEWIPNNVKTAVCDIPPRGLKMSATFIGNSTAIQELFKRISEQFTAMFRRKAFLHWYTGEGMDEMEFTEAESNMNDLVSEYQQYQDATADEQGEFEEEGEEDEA
Chain of Epidermal growth factor receptor (Homo sapiens) (P00533 whole entry, the tested form may be a part): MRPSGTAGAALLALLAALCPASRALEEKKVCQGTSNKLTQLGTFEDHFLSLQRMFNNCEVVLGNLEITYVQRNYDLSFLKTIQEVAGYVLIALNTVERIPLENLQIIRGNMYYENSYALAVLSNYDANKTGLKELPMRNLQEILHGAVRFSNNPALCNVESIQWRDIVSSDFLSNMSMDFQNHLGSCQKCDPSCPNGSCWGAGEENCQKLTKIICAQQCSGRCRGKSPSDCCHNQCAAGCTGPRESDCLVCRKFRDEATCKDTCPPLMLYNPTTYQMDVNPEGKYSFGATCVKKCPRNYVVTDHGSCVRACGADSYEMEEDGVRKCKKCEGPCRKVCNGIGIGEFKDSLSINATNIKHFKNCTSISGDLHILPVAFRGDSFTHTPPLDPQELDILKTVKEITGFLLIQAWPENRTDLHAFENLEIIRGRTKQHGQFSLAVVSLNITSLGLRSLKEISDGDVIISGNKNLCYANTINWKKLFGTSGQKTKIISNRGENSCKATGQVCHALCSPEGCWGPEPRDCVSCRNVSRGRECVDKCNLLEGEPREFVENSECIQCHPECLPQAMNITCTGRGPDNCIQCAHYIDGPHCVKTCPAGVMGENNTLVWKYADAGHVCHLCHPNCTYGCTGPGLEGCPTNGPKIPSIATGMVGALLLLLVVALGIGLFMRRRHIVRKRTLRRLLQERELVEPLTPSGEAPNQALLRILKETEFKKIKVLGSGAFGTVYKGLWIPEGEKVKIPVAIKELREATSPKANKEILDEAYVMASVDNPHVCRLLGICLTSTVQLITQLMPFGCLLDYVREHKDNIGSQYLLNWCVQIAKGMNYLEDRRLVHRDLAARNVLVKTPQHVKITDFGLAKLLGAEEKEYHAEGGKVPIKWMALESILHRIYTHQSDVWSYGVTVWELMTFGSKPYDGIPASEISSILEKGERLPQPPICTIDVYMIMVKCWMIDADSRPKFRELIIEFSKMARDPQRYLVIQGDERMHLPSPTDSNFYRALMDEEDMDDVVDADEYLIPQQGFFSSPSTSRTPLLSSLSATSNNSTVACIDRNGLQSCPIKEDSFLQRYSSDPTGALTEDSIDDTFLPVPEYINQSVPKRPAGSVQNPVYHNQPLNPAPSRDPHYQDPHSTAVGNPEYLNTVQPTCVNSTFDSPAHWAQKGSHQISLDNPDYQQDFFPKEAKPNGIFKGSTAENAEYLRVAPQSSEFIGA

Compound	IC50 (HeLa [1]) [µM]	IC50 (PC-3) [µM]	IC50 (HEK293) [µM]	IC50 (HCT-116) [µM]	further results
COc1cccc(Nc2n[nH]c3c2Cc2cc(OC)ccc2-3)c1	0.0028	0.0047	0.0088	0.00653	–
COc1ccc2c(c1)Cc1c(Nc3ccccc3O)n[nH]c1-2	> 0.1	> 0.1	> 0.1	> 0.1	–
Oc1ccc2c(c1)Cc1c(Nc3ccccc3)n[nH]c1-2	> 0.1	> 0.1	> 0.1	> 0.1	–
COc1ccc(Nc2n[nH]c3c2Cc2cc(OC)ccc2-3)cc1	> 0.1	> 0.1	> 0.1	> 0.1	–
CC(=O)O[C@H]1C(=O)[C@@]2(C)[C@H]([C@H](OC(=O)c3ccccc3)[C@]3(O)C[C@H](OC(=O)[C@H](O)[C@@H](NC(=O)c4ccccc4)c4ccccc4)C(C)=C1C3(C)C)[C@]1(OC(C)=O)CO[C@@H]1C[C@@H]2O	–	–	–	–	inhibition (Tubulin (Homo sapiens) [2]): inactive
c1ccc(Nc2n[nH]c3c2Cc2ccccc2-3)cc1	> 0.1	> 0.1	> 0.1	> 0.1	Activity (HeLa [3]): inactive; Activity (HeLa [4]): inactive
COc1cc2c(c(OC)c1OC)-c1ccc(OC)c(=O)cc1[C@@H](NC(C)=O)CC2	–	–	–	–	Activity (HeLa [5]): Active
COc1ccc2c(c1)Cc1c(Nc3cccc(O)c3)n[nH]c1-2	0.0071	0.0086	> 0.1	0.0109	–
CCOc1ccc2c(c1)Cc1c(Nc3ccccc3)n[nH]c1-2	0.0204	0.0602	0.0556	0.0568	–
COc1ccc2c(c1)Cc1c-2n[nH]c1Nc1ccccc1	0.0089	0.0356	0.0536	0.0266	inhibition (Tubulin (Homo sapiens) [6]): inactive; inhibition (Tubulin (Homo sapiens) [7]): inactive
COc1ccc2c(c1)Cc1c(Nc3ccccc3OC)n[nH]c1-2	0.032	> 0.1	> 0.1	0.0862	–
COc1ccc2c(c1)Cc1c(Nc3cccc(C(=O)O)c3)n[nH]c1-2	> 0.1	> 0.1	> 0.1	> 0.1	–
COc1ccc2c(c1)Cc1c(Nc3ccc(OC)c(OC)c3)n[nH]c1-2	> 0.1	0.0909	> 0.1	0.0863	–
COc1cccc(Nc2n[nH]c3c2Cc2ccccc2-3)c1	> 0.1	> 0.1	> 0.1	> 0.1	inhibition (Tubulin (Homo sapiens) [7]): inactive
COc1ccc2c(c1)Cc1c(Nc3cccc(OCC(C)C)c3)n[nH]c1-2	0.0199	0.0505	0.0255	0.0566	inhibition (Tubulin (Homo sapiens) [8]): Active; inhibition (Tubulin (Homo sapiens) [9]): Active
COc1cc(Nc2n[nH]c3c2Cc2cc(OC)ccc2-3)cc(OC)c1	0.0032	0.007	0.0046	0.0074	–
COC(=O)c1cccc(Nc2n[nH]c3c2Cc2cc(OC)ccc2-3)c1	0.00247	0.00264	0.0022	0.0027	inhibition (Tubulin (Homo sapiens) [10]): Active; inhibition [11]: > 82%; inhibition [12]: inactive; Activity (Escherichia coli): inactive; Activity (Plasmodium falciparum): inactive; inhibition [13]: > 82%; Activity (HeLa [3]): Active; inhibition [14]: inactive; Activity (Pyricularia oryzae): inactive; inhibition [15]: inactive; inhibition [16]: > 82%; inhibition [17]: inactive; inhibition [18]: inactive; Activity (Candida albicans): inactive; Activity (Staphylococcus aureus): inactive; Activity (Aspergillus fumigatus): inactive; inhibition (Tubulin (Sus scrofa)): Dose-dependent effect; inhibition [19]: inactive; inhibition (Tubulin (Homo sapiens) [20]): Active
